Measured values as given in patent US11725027B2, “Hypersensitive response elicitor-derived peptides and use thereof” (priority 2016, dated 2023).
Read-outs that look alike come from different tables or passages of the source. Marks after values point to notes of the source that are not given here. No end group written: not given here.

Columns and labels:
[1] = 50° C.; for stability in buffer solutions: 50 mM buffers
Experimental: Briefly, the stability and resistance to chemical degradation of peptides can be assessed as follows using peptide samples having an initial purity of at least about 80%, at least about 82%, at least about 84%, at least about 86%, at least about 88%, at least about 90%, at least about 92%, at least about 94%, at least about 96%, or at least about 98%. For water stability, the peptide is dissolved directly in de-ionized water. For chemical degradation tests, the peptide is dissolved in an aqueous solution containing 50 mM pH buffer and 0.25% Proxel GXL. Exemplary pH buffers include, without limitation: (i) Citrate pH 5.6; (ii) MES pH 6.0; (iii) MOPS pH 6.5; (iv) imidazole pH 7.5; (v) Citrate pH 7.2; (vi) EDDS, pH 7.3; (vii) EDTA pH 8.0; (viii) sodium phosphate pH 8.0; or (ix) TES pH 8.0. Peptides are first dissolved in the aqueous solution at a concentration of 0.5 mg/ml. The samples are incubated at 50° C. to allow for accelerated degradation. An initial sample of the peptide is removed, diluted 10× with water, and analyzed by reverse-phase HPLC. Briefly, 20 μl of the sample is injected into the solvent flow of an HPLC instrument and analyzed on a C18 HPLC column (YMC ProPack C18, YMC, Japan, or C18 Stablebond, Agilent Technologies, USA) using either a triethylamine phosphate in water/acetonitrile gradient or a 0.1% TFA in water/0.1% TFA in acetonitrile gradient to separate different peptide species. Eluting peptides are monitored by UV absorbance at 218 nm and quantified based on the area under the peak. The area under the peak for the initial peptide sample is treated as the standard for relative quantification in subsequent runs. At regular intervals (e.g., 1, 3, 7, 10, and 14 days), each peptide sample is surveyed and analyzed by HPLC as described above.
(§1) Stability against chemical degradation was assessed in various pH buffers by creating 0.2% AI solutions of pure, chemically synthesized peptide in deionized water, 0.25% weight to volume of Proxel® GXL (biocide), and 50 millimolar (mM) of nine buffers (separately) as follows: Citrate, pH 5.6, MES pH 6.0, MOPS pH 6.5, Citrate pH 7.2, EDDS pH 7.3, imidazole pH 7.5, EDTA pH 8, Phosphate pH 8, and TES pH 8.

[2] = Solution (formulation) stability at 50° C. (HPLC); type: physicochemical; conditions: 0.25% Proxel GXL
Experimental: Peptides solutions were analyzed by HPLC for % loss of the peptide signal over time during incubation at 50° C., relative to the time 0 sample. Peptides were analyzed until the remaining peptide concentration decreased to 80% of original (20% degradation).

[3] = Stability of material bulked with maltodextrin and buffer at room temperature; type: physicochemical; conditions: bulked with maltodextrin and phosphate buffer (pH 8.0) or citrate buffer (pH 7.2), 48 hours
Experimental: Samples of material P5, P5-21, and P5-25 bulked with maltodextrin and either phosphate buffer (pH 8.0) or citrate buffer (pH 7.2) were tested for stability at room temperature for 48 hours.

[4] = test system: Nicotiana tabacum cultivar xanthi plants; assay: Hypersensitive Response (HR) induction in tobacco leaves; type: in vivo; set-up: key to HR: Plants are considered HR-positive (“HR+”) if they exhibit wide-spread macroscopic cell death visible to the naked eye, accompanied by wilting and browning of the affected tissue within 48 hours; Plants are considered HR-negative (“HR−”) if they exhibit no discernible wilting or tissue death observable by naked eye; conditions: tobacco leaf infused with 500, 250, 125, 62.5, 31.25 μg/ml peptide solutions, scored over 48 hours
Source text: A property of a peptide to elicit a hypersensitive response, or not, upon infiltration or application of the peptide to plant tissues can be measured by applying the peptide in dry powder form or in solution form to a plant, particularly though not exclusively a plant leaf.
The minimal eliciting sequence derived from was developed based on the sequence of the hrex gene from Xanthomonas campestris pv. pelargonii. A number of truncated and mutated sequences were synthesized and tested for Hypersensitive Response induction (results in Table 4). HR in tobacco was tested as described in Wei, Science 257:85-88 (1992), which is hereby incorporated by reference in its entirety. Briefly, peptides were dissolved at a concentration of 500 μg/ml in aqueous solution. Four serial dilutions were performed with an equal volume of water, yielding peptide samples at 500, 250, 125, 62.5, 31.25 μg/ml peptide solutions. Nicotiana tabacum cultivar xanthi plants were used at 5-7 weeks old (preflowering). Leaves were lightly punctured with a toothpick in a middle leaf panel. Peptide solutions were then infused via needle-less syringe into the wound, filling the panel. Each peptide sample was infused into a leaf of 2 different plants. The leaves were observed and scored over the next 48 hours for withering and browning, lesions typical of programmed cell death. These studies had […] main goals: (1) determine the minimal sequence sufficient for HR elicitation (2) increase the solution stability of the peptides; (3) make disruptive mutations to verify the residues which are most important for HR elicitation; (4) make conservative mutations to identify the degree of specificity for particular amino acids.

soybean cyst nematodes = assay: Seed coating with peptides compared with chemical nematode agents in soy; type: in vivo, soy (Sheyenne variety)
Experimental: Additional experiments will be performed to examine the effectiveness of peptide treatment in suppressing the growth of soybean cyst nematodes using one or more of the other peptides in Tables 1 and 2, including, without limitation, P5-21 and P5-25. See Example 8 below.
The effectiveness of peptides was tested in soy (Sheyenne variety) and compared with current anti-nematode chemicals. Briefly, soy seeds were commercially coated with peptide at rates of 10, 30, or 90 ug peptide per seed or with chemical nematicides Avicta Complete, Clariva Complete, Poncho/Votivo, or Velum total. 3 soy seeds were planted in a mixture of topsoil and sand (pasteurized) in a 10 cm diameter pot and were inoculated with 1500 eggs per pot at planting. 10 replicate pots were used per experimental condition. After plants emerged from the soil, the plants were thinned to one plant per pot. Plants were harvested about 45 days after planting. The following measures were taken: (1) Fresh shoot and root weights; (2) Root condition graded 0-10 for the presence of disease; (3) Nematode cysts per plant; (4) Nematode eggs per plant; and optionally (5) Male nematodes. The following values were calculated: eggs per gram of root, cysts per gram of root, and eggs per cyst.

[5] = test system: tobacco mosaic virus (TMV); assay: Induction of resistance to tobacco mosaic virus in tobacco; type: in vivo; conditions: % decline in TMV lesions vs UTC, spray 20 ug/ml; for Effectiveness Covered (%): covered leaf (systemic response); for Effectiveness Uncovered (%): uncovered leaf (local response)
Experimental: Peptides were tested for the induction of resistance to tobacco mosaic virus (TMV) in tobacco. Briefly, three tobacco plants at 6-8 weeks old were selected per group (samples and controls). The bottom-most leaf of the plant was covered and the plant was sprayed with a solution of water (untreated control—UTC), peptide, or Proact (positive control). The spray was applied until the leaves were fully wetted, indicated by liquid dripping from the leaves. The plants were then allowed to dry and the leaf covering was removed.
Three days post-treatment, the previously-covered leaf and a leaf on the opposite side of the plant were then lightly dusted with diatomaceous earth and 20 ul of a 1.7 ug/ml solution of purified tobacco mosaic virus was applied. The TMV solution was then spread across the leaf surface by lightly rubbing solution and the diatomaceous earth across the surface of the leaves. Two minutes after inoculation, the diatomaceous earth was rinsed off the leaves with water. 3 days after TMV inoculation, the leaves were scored based on the number of TMV lesions observed. The leaf was also scored for signs of the hypersensitive response, including yellowing and wilting of the affected leaves.
Effectiveness described in Table 6 refers to the % decline in TMV lesions on treated vs UTC plants. A reduction of TMV on covered leaves indicates a systemic immune response in the plant while reduction on uncovered leaves indicates a local response. Asterisks indicate that the P-value derived from a T-test was <0.05.

corn = assay: Drought resistance in corn (greenhouse, spray); type: in vivo; conditions: corn under drought
Experimental: (§2) The effectiveness of peptide treatment in reducing drought stress was assessed in corn and soy. 3.5 inch pots were filled with Sunshine #1 soil (SunGro Horticulture), fertilized with a 20-10-20 mixture. The soil was soaked and drained overnight. Seeds (either corn or soy, manually inspected to ensure uniform seed size) were planted at a depth of 1 inch for germination. Plants were grown in a greenhouse under 16 hour light days at >70° F. and 8 hour dark nights at >65° F. Prior to drought conditions, the plants were well-watered.
When the plants reached the V1 stage, plants were culled to achieve a uniform height (abnormally large and small plants were removed). Plants were then randomly assigned to control (spray without peptide) or treatment (spray with peptide) groups and heights were measured. Peptide was made up in a solution of 0.2 ug/ml or 2 ug/ml in distilled water+0.01% Tween-20, and applied as a fine mist from a spray bottle until the solution drips from the leaves. After the peptide solutions were dried, the plants were again randomized in a randomized complete block design. Drought stress was initiated after the peptide treatment. This was caused by maintaining the water level at 25-50% of the maximum capacity for water (capacity was decided as the weight of the pot filled with saturated soil minus the weight of the filled pot prior to adding water).
(§3) The drought test phase ended after 2-3 weeks. At that time, the plant height was again measured and the growth rate was calculated as the difference between this and the previously-recorded height. The above-ground part portions of the plants were harvested and weighed. The above-ground portion was also dried in an oven at 70° C. for 72 hours and a dry weight was obtained. All calculations were compared with matched untreated control plants.

[6] = 50 mM buffer solutions pH 5.6-8.0, 0.25% Proxel GXL
Experimental: as §1

soy = assay: Drought resistance in soy (greenhouse, spray); type: in vivo; conditions: soy under cyclic drought, 2.0 ug/ml
Experimental: as §2, with “in” for “in corn and”, “Seeds (soy,” for “Seeds (either corn or soy,”, “of half” for “of 1”
When the plants reached the growth stage when first trifoliate expanded, plants were culled to achieve a uniform height (abnormally large and small plants were removed). Plants were then randomly assigned to control (spray without peptide) or treatment (spray with peptide) groups and heights were measured. Peptide was made up in a solution of 0.2 ug/ml or 2 ug/ml in distilled water+0.04% Tween-20, and applied as a fine mist from a spray bottle until the solution drips from the leaves. After the peptide solutions were dried, the plants were again randomized in a randomized complete block design. Cyclic drought stress was initiated after the peptide treatment. Plants were subjected to at least three drought cycles of drought stress (3-5 days of withholding water and 1 day irrigated with saturating amount of water) before harvesting.
as §3, with “weighed to obtain fresh weight.” for “weighed.”, “to obtain” for “and a”, “weight.” for “weight was obtained.”

[7] = EDTA buffer pH 8.0, 50 mM, after 14 days

SEEQLELLLAFIAAALQQEE [Peptide P5-21]
peptide remaining [1, 7]: around 80% | peptide remaining (stability) ([1]; all buffers pH>7.0 except EDTA, 50 mM, after 14 days): > 90% | Time before 20% degradation ([2]; 50 mM citrate pH 7.2, 20% IPA, 0.09% AI): 41 days | degradation (more than 5% loss) [3]: No significant degradation

LDLLLAFIAAALEEEEEE [Peptide P5-9]
stability in buffer solutions [1]: better stability compared with P5 | peptide remaining ([1]; citrate pH 7.2, 50 mM, after 14 days): above 80% | peptide remaining ([1]; phosphate pH 8.0, 50 mM, after 14 days): above 80%

SEEEEQLDQLLLAFIAAALQQ [Peptide P5-25]
HR [4]: - | reduction in cysts per gram root (soybean cyst nematodes; 10 ug peptide per seed): 92% | reduction in eggs per gram root (soybean cyst nematodes; 10 ug peptide per seed): 94% | reduction in cysts per gram root (soybean cyst nematodes; 30 ug peptide per seed): 82% | reduction in eggs per gram root (soybean cyst nematodes; 30 ug peptide per seed): 85% | reduction in cysts per gram root (soybean cyst nematodes; 90 ug peptide per seed): 91% | reduction in eggs per gram root (soybean cyst nematodes; 90 ug peptide per seed): 93% | Time before 20% degradation ([2]; 50 mM citrate pH 7.2, 0.09% AI): 53 days | Effectiveness Covered (%) [5]: 93* % | Effectiveness Uncovered (%) [5]: 91* % | drought resistance, experimental results (corn): not statistically significant | degradation (more than 5% loss) [3]: No significant degradation

SEEQLDQLLLMFIMMMLQQEE [Peptide P5-46]
HR [4]: + | Effectiveness Covered (%) [5]: 74* % | Effectiveness Uncovered (%) [5]: 85* % | Dry Weight Increase (%) (corn; 2.0 ug/ml): 3.71% | Fresh Weight Increase (%) (corn; 2.0 ug/ml): 9.05** %

SAGSEQQLDLLLMFIMMMLQQ [Peptide P5]
stability in buffer solutions [1]: generally poor stability | peptide remaining [1, 7]: about 40% | Time before 20% degradation ([2]; 50 mM phosphate pH 8.0, 30% IPA, 5 mM DTPA, 0.09% AI): 21 days | degradation (more than 5% loss) [3]: No significant degradation

QLELLLAFIAAALQQ [Peptide P5-5]
solubility [6]: Precipitation

NQGISEKQQLDLLLAFIAAALQQ [Peptide P5-76]
HR [4]: Weak+ | Dry Weight Increase (%) (corn; 0.2 ug/ml): 5.33* % | Fresh Weight Increase (%) (corn; 0.2 ug/ml): 2.00%

SEEQLDQLLLAFIAAALQEE [Peptide P5-27]
HR [4]: - | Time before 20% degradation ([2]; 50 mM imidazole pH 7.5, 50% IPA, 0.09% AI): 50 days | Dry Weight Increase (%) (soy): 2.04% | Fresh Weight Increase (%) (soy): 4.07* %

SAGSEQQEDLLLMFIMMMLQQ [Peptide P5-35]
HR [4]: Weak+ | Dry Weight Increase (%) (corn; 2.0 ug/ml): −6.57* % | Fresh Weight Increase (%) (corn; 2.0 ug/ml): −6.05* %
